The subject of one data set is Anas platyrhynchos. The note with it: for LD50: oral, mortality.
A further data set concerns Apis mellifera. The note with it: acute; duration: 48 hours; dermal; mortality.
In another data set the test system is Canidae. The conditions noted are these: oral, Dog Other, clinical signs.
The next data set concerns Colinus virginianus. The conditions noted are these: acute, oral, mortality.
The next data set has as its system Daphnia magna. The note with it: chronic/long-term; duration: 21 days; reproduction.
The test system of another data set is Folsomia candida. The conditions noted are these: chronic/long-term; duration: 28 days.

From EPA's ToxValDB 9.5 (doi:10.2903/j.efsa.2009.192r) come the findings set out here.

Values after ≈ are worked out from the molar mass of the structure shown. Some results are limits rather than exact numbers.

On to `CCc1nn(C)c(C(=O)NCc2ccc(C(C)(C)C)cc2)c1Cl` [Tebufenpyrad], for which the LD50 in the data set with Anas platyrhynchos (acute, unspecified) was > 2000 mg/kg-day; in the data set on Anas platyrhynchos (short-term, feed) it was > 75 mg/kg-day; in the data set with Apis mellifera, > 6.7 µg/piece; in the data set on Colinus virginianus (diet), > 439 mg/kg-day; with Colinus virginianus it was > 2000 mg/kg-day; in the data set with Rattus norvegicus (acute, oral, M/F, Fischer 344, mortality) it was 320 mg/kg-day. In addition, the NOEL worked out at 6.6 mg/kg-day in the data set on Anas platyrhynchos (reproductive) and 8.4 mg/kg-day in the data set on Rattus norvegicus (chronic, body weight). Further, the NOAEL with Canidae (chronic, duration: 1 years) came to 2 mg/kg-day; in the data set on Canidae (subchronic, duration: 90 days), 2 mg/kg-day; in the data set on Rattus norvegicus (chronic, duration: 2 years, oral, diet, organ weight), 0.8 mg/kg-day; with Rattus norvegicus (reproduction developmental, reproduction), 15.3 mg/kg-day; in the data set with Rattus norvegicus (subchronic, duration: 90 days, oral, organ weight) it was 0.7 mg/kg-day. Further, the NOEC with Daphnia magna amounted to 0.0024 mg/L; in the data set with Folsomia candida, 9.38 g/ha; with Oncorhynchus mykiss (chronic/long-term, duration: 94 days), 0.00245 mg/L; with Tagia sp. (chronic/long-term) it was 0.66 mg/kg. Also, the LC50 in the data set with Oncorhynchus mykiss (acute, duration: 96 hours, mortality) was 0.03 µg/mL (≈ 0.0899 µM); with Tagia sp. (acute, duration: 14 days, mortality), 41 mg/kg.
